Assay results from patent publication US20160184459A1, “CANCER CELL SPECIFIC IMAGING PROBES AND METHODS OF USE” (THE RESEARCH FOUNDATION FOR THE STATE UNIVERSITY OF NEW YORK, priority 2013, published 2016).

Key:
[1] = tested on: HCT116 xenograft tumor; experiment: HCT116 mouse xenograft model; type: in vivo
Excerpt: FIG. 20. In vivo anticancer efficacy of BKAc-Puro. […] HCT116 cells were implanted subcutaneously into female nude mice. When the developed tumors reached 200 mm^3, animals were intraperitoneally injected by the indicated dose of the compound or vehicle control (DMSO). Tumor volume was estimated by the equation vol=(a×b^2)/2, where vol, a, and b represent volume, the length of the major axis, and the length of the minor axis, respectively. Arrows indicate the time points of treatment. (b) Body weight change during the treatment in a. Value is expressed in percent change compared to the day of the first treatment.
FIG. 21. HCT116 cells were implanted subcutaneously into female nude mice. When palpable tumors reached 50-150 mm^3, animals were randomized and treated by the indicated dose of the compound or vehicle control (DMSO) via intraperitoneal injection. Tumor incidence is presented as number of mice developed tumor (volume >300 mm^3) after 2 weeks of daily treatment/number of mice treated. Tumor volume was estimated by the equation vol=(a×b^2)/2, where vol, a, and b represent volume, the length of the major axis, and the length of the minor axis, respectively.
FIG. 29. In vivo anticancer efficacy of Boc-KAc-Puro. (a) Tumor growth in HCT116 xenograft model. Animals were treated with acidified saline control or Boc-KAc-Puro (50 or 150 mg/kg). Values are mean±s.d. (n=5 mice per group). *** P<0.001 compared to the control group. P=0.000716 (50 mg/kg), P=0.000349 (150 mg/kg) at 10 d. (b) Body weight change during the treatment in a and was monitored as a sign of general animal health. Values are mean±s.d. (c) Tumor growth in HT29 xenograft model. Animals were treated with acidified saline control or Boc-KAc-Puro (150 mg/kg). Values are mean±s.d. (n=5 mice per group). *** P<0.001 compared to the control group. P=0.000514 (150 mg/kg) at 10 d. (d) Body weight change during the treatment in c was monitored as a sign of general animal health. Values are mean±s.d. (e) Levels of Puro-incorporated proteins were monitored by immunoblotting. Animals bearing HT29 xenograft tumor were given daily intraperitoneal administration of the prodrug at 150 mg/kg/dose for 3 d, followed by preparation of tissue lysates. The lower panel (anti-α-Tubulin) served as a loading control.
To assess the in vivo efficacy of the compounds, mouse xenograft model using HCT116 colon cancer cells is used as an established evaluation method for the anticancer drugs against cancer (Cao, Z. A. et al. 2006). The growth inhibitory effects of the compounds on size-matched xenografts are examined by subcutaneous implantation of HCT116 cells into nude mice. HCT116 cells are injected subcutaneously and allowed to develop palpable tumors (50-150 mm^3) before initiation of drug administration. Mice (5-10 animals per group) are treated with the vehicle (DMSO or PBS) or the prodrugs by intraperitoneal administration. Dose ranges are determined by the dose escalation studies of the prodrugs. […] Relative tumor volume is calculated by dividing tumor volume by that on day 0 (the day of treatment initiation). […] Statistical significance of the data is evaluated by performing one-way ANOVA with post hoc Turkey's test to compare means (GraphPad Prism software). The efficacy of the compounds is further evaluated in a similar manner by using other cancer cell lines. […]

[2] = tested on: ARH-77 cells; experiment: Live single cell imaging by fluorescence microscopy, cell surface Puro; type: cell-based; settings: 20 μg/ml, 16 hr, anti-puro antibody (12D10) Alexa 647, fluorescence microscopy
Description: Cell surface detection of Puro by anti-puro antibody (12D10) conjugated to Alexa 647 (EMD Millipore). ARH-77 cells were treated with Puro (0.25 μg/ml) or Boc-KAc-Puro (20 μg/ml) for 16 hr then harvested by centrifugation followed by two times wash using cold washing solution (0.1% BSA in PBS). Cells were resuspended in the same solution and incubated 30 min on ice with Alexa 647 conjugated mouse IgG2a anti-puromycin antibody (12D10). Cells were washed twice with the solution followed by fluorescence microscope analysis. The specificity of the antibody was confirmed by using isotype control antibody (mouse IgG2a conjugated with Alexa 647).

[3] = tested on: non-malignant Caco-2 cells; experiment: Cell counting, Caco-2; type: cell-based, human; settings: 54 μM, 5 d
Description: FIG. 9. The colon cancer cell lines were grown for 5 d either with vehicle control DMSO (gray symbols) or 54 μM BKAc-Puro (red and blue symbols), and cell number was determined at the indicated time points.
Cell number was determined by cell counting using improved Neubauer hemacytometer. Cell viability was calculated as the number of viable cells divided by the total number of cells using Trypan Blue Stain (Invitrogen) to distinguish non-viable cells. Data were obtained from duplicated samples with quadruplicate measurements. MTS based cell viability assay was performed using CellTiter 96 Aqueous Cell Proliferation Assay (Promega) according to the manufacturer's instruction. Either 1 μl of DMSO alone or variable concentrations of BKAc-Puro or Puro in DMSO were added to the cell lines seeded at 5×10^4 cells per well in 96-well tissue culture plates in 100 μl of the growth medium, followed by 3-5 d incubation at 37° C. with 5% CO2 atmosphere. […] After additional 2-3 h incubation, the absorbance of the formazan at 490 nm was measured by the microplate reader. […] Determination of non-viable cells using PI staining was performed by adding 1 μg/ml of PI solution (Sigma) to the cell culture, prior to the examination under fluorescence microscopy (Axiovert 3, Carl Zeiss) through a×32 objective equipped with a digital imaging processor (Infinity 3, Lumenera).

In the case of `COc1ccc(CC(NC(=O)C(CCCCNC(C)=O)NC(=O)OC(C)(C)C)C(=O)NC2C(O)[C@H](n3cnc4c(N(C)C)ncnc43)O[C@@H]2CO)cc1` (stereo partly drawn) [BKAc-Puro, N-[3′-(α-Amino-p-methoxyhydrocinnamamido)-3′-deoxy-N,N-dimethyldenosinyl)-N-α-(t-butoxycarbonyl]-N-ε-acetyl-L-lysineamide], the “Tumors developed at 200 mg/kg” value ([1]; 200 mg/kg, intraperitoneal, 2 weeks daily) is reported as “no tumors greater than 300 mm^2 were observed”, the Tumor growth ([1]; 50 and 150 mg/kg/dose daily intraperitoneally for 10 d) is reported as “dose-dependent inhibition of tumor growth” and the “Tumor mass in comparison to acidified saline control” value ([1]; 50 and 150 mg/kg/dose, 10 d, P<0.001) is reported as “significantly smaller tumor mass”. For the same compound, the Tumor incidence ([1]; intraperitoneal, 2 weeks of daily treatment) was “inhibition of tumor incidence”, the Tumor growth ([1]; intraperitoneal, treatment from tumors of 200 mm^3, DMSO vehicle control) was “inhibition of tumor growth” and the “Puro presentation on cell surface proteins” value [2] was “confirmed”. For the same compound, the “Cell proliferation (cell number)” value [3] was “allowed them to proliferate to confluency”.
